This is an account of results in patent US9232798B2, “Pesticidal composition and its use” (SUMITOMO CHEMICAL COMPANY, LIMITED, priority 2010, dated 2016).

Molecules are shown by their SMILES.

The test concerns Rhizoctonia solani. Description: Soybean seed treatment test against Rhizoctonia solani in contaminated soil (Test Example). It counts as in vivo, Rhizoctonia solani on soybean (variety: Natto shoryu). Conditions: carboxamide compound alone 0.2 g/100 kg of seeds (no fipronil), soybean grown 20 days in soil contaminated by Rhizoctonia solani, from disease severity versus non-treated plot. The procedure: A cyclohexanone solution (100 microL) containing prescribed amount (weight) of a test compound was applied on seeds of soybean (variety: Natto shoryu) (10 g) by using a rotary apparatus for seed treatment (Seed dresser, manufactured by Hans-Ulrich Hege GmbH).
One day after the treatment, plastic pot was filled with soil contaminated by Rhizoctonia solani, and the seeds treated with the test compounds were seeded in the soil and cultivated in a glass-greenhouse for 20 days (hereinafter referred to as “treated plot”).
Thereafter, the presence of disease caused by Rhizoctonia solani in the young plants which germinated from each seed was observed and disease severity was calculated according to the following calculation formula (1).
On the other hand, seeds of soybean which were not treated as above were cultivated in the same way as above (hereinafter referred to as “non-treated plot”) and the disease severity in “non-treated plot” was calculated in the same way as above “treated plot”. On the basis of the above disease severity in “treated plot” and the “non-treated plot”, efficacy in “treated plot” was evaluated according to the following calculation formula (2). […]

As for `CC1CC(C)(C)c2cccc(NC(=O)c3cn(C)nc3C(F)F)c21` (stereo not shown) [carboxamide compound (1)], the “efficacy (%)” value was determined as 42.1%.
